# In US4606908A, “Methods and compositions for plasma and organ imaging” (Washington Research Foundation, priority 1983, dated 1986):
# Test system: isolated rabbit hearts
# Assay: extraction and retention of tracer in isolated perfused rabbit hearts (indicator dilution, coronary sinus outflow)
# Design: species or system New Zealand white rabbits
# Conditions: isolated rabbit heart
# Description: For isolated heart studies, after anesthesia with pentobarbital, the hearts were removed from 2 to 3 kg New Zealand white rabbits and mounted on a perfusion system in which the flow was controlled and the perfusion pressure monitored. The perfusate was (mM): Na 142, K 5.4, Mg 1.0, Ca 2.0, Cl 141, HCO3 12, PO4 0.435, glucose 11.0, and insulin 2 units/L, at 37° C. The coronary sinus flow and Thebesian flow into the right ventricle were collected via cannula placed through the pulmonary artery and a total effluent flow measured with graduated cylinder and stopwatch. Reference and test tracers were simultaneously injected as a mixed bolus into the aortic cannula, which supplied only the coronary system. Samples of the coronary sinus effluent were taken from the cannulated pulmonary artery at intervals of 1, 2, 4 or 10 seconds; higher sampling rates were used during the first part of the curves. The outflow of response was calculated as the fraction of dose emerging per unit time, h(t), at each time t:
# F is the perfusate flow ml×s^-1 ;
# C(t) is the concentration of tracer, cpm/ml; and
# q0 is the injected dose of tracer, cpm.
smiles,measurement,setting,value
CNCCCN1c2ccccc2CCc2ccc([125I])cc21 [^125 I-DMI],retentions at 10-20 min,10-20 min,about 80%
same,maximal instantaneous extractions,"37° C., plasma flows up to 1.5 ml/min×g",96%
same,Overall retentions at 1 min,"1 min, minimum value, indicator possibly impure",about 91%
